Assay: The compound was tested for anesthetic potency in tadpoles
Format: functional, frog

- EC50: 160 µM
SMILES: CCCCCC1(CCO)N=N1

Reference: ChEMBL document CHEMBL1132357, “Synthesis and properties of 3-(2-hydroxyethyl)-3-n-pentyldiazirine, a photoactivable general anesthetic” (J Med Chem, 1999)
